Each compound was assayed against human CTPS1 (Homo sapiens (Human), UniProt P17812) (assay: hCTPS1 biochemical assay (ADP-Glo)). Settings: hCTPS1 25 nM, ATP 120 uM, UTP 160 uM, GTP 60 uM, L-Glutamine 100 uM, 25 degrees C.
Sequence of human CTPS1 (P17812 whole entry): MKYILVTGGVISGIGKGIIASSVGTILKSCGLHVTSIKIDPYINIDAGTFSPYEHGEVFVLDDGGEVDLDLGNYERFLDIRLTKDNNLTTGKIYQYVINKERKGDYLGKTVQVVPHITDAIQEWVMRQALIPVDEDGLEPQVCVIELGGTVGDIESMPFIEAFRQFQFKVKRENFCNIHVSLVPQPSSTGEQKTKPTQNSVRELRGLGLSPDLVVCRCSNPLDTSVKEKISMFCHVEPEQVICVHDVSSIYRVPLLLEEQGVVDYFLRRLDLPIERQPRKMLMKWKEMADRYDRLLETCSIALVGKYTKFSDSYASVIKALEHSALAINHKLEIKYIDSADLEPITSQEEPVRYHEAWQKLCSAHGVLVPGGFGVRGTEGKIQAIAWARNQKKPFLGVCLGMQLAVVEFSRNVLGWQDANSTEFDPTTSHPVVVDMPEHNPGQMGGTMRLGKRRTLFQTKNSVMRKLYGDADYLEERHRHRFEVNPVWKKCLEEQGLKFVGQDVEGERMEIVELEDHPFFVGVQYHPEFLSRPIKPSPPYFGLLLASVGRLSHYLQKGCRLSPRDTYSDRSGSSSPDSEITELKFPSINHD

IC50 [µM]	Structure (SMILES)
< 0.1	CCOc1cncc(-c2ccc(C(=O)NC3(c4cccc(NS(=O)(=O)C(F)F)c4)CC3)s2)n1 [I-269, N-(1-(3-((difluoromethyl)sulfonamido)phenyl)cyclopropyl)-5-(6-ethoxypyrazin-2-yl)thiophene-2-carboxamide]
≥ 1	O=C(NC1(c2csc(NS(=O)(=O)C3CC3)n2)CC1)c1cc2ccccc2cn1 [I-3, N-(1-(2-(cyclopropanesulfonamido)thiazol-4-yl)cyclopropyl)isoquinoline-3-carboxamide]
≥ 1	CCOc1cncc(-c2ccc(C(=O)NCc3ccnc(NS(=O)(=O)N4CCC4)n3)nc2)n1 [I-82, N-((2-(azetidine-1-sulfonamido)pyrimidin-4-yl)methyl)-5-(6-ethoxypyrazin-2-yl)picolinamide]
< 0.1	CCOc1cncc(-c2cnc(C(=O)N[C@@H](CCN3CCOCC3)c3cc(NS(=O)(=O)C4CC4)ccn3)s2)n1 [I-165, (S)—N-(1-(4-(cyclopropanesulfonamido)pyridin-2-yl)-3-morpholinopropyl)-5-(6-ethoxypyrazin-2-yl)thiazole-2-carboxamide]
< 0.1	CCOc1cncc(-c2cnc(C(=O)N[C@H](c3cc(NS(=O)(=O)C4CC4)ccn3)[C@H]3C[C@@H](N(C)C)C3)s2)n1 (single isomer, unassigned) [I-105]
< 0.1	CCOC[C@@H](NC(=O)c1ncc(-c2cncc(OCC)n2)s1)c1cc(NS(=O)(=O)C2CC2)ccn1 [I-97, (S)—N-(1-(4-(cyclopropanesulfonamido)pyridin-2-yl)-2-ethoxyethyl)-5-(6-ethoxypyrazin-2-yl)thiazole-2-carboxamide]
≥ 1	O=C(NC1(c2csc(NS(=O)(=O)C3CC3)n2)CC1)c1ccc2ccccc2n1 [I-2, N-(1-(2-(cyclopropanesulfonamido)thiazol-4-yl)cyclopropyl)quinoline-2-carboxamide]
≥ 1	CCc1nc2cc(C(=O)NCc3cc(NS(=O)(=O)C4CC4)ccn3)ccc2[nH]c1=O [I-171, N-((4-(cyclopropanesulfonamido)pyridin-2-yl)methyl)-3-ethyl-2-oxo-1,2-dihydroquinoxaline-6-carboxamide]
≥ 1	CCOc1cncc(-c2ccc(C(=O)NC3(c4csc(N(C)S(=O)(=O)C5CC5)n4)CC3)nc2)n1 [I-14, 5-(6-ethoxypyrazin-2-yl)-N-(1-(2-(N-methylcyclopropanesulfonamido)thiazol-4-yl)cyclopropyl)picolinamide]
< 0.1	CCOc1cncc(-c2cnc(C(=O)N[C@@H](CN3C[C@@H]4C[C@H]3CO4)c3cc(NS(=O)(=O)C4CC4)ccn3)s2)n1 (single isomer, unassigned) [I-102]
≥ 1	Cc1cn2cc(-c3ccc(C(=O)NCc4cc(NS(=O)(=O)C5CC5)ccn4)nc3)cnc2n1 [I-31]
≥ 1	CCOc1cncc(-c2cnc(C(=O)N[C@H](CCN(C)C)c3cccc(NS(=O)(=O)C4CC4)c3)s2)n1 (single isomer, unassigned) [I-143]
< 0.1	CC[C@H](NC(=O)c1ncc(-c2cnn3ccc(Cl)cc23)s1)c1cc(NS(=O)(=O)C2CC2)ccn1 [I-150, (S)-5-(5-chloropyrazolo[1,5-a]pyridin-3-yl)-N-(1-(4-(cyclopropanesulfonamido)pyridin-2-yl)propyl)thiazole-2-carboxamide]
< 0.1	CCOc1cncc(-c2cnc(C(=O)N[C@](C)(COC)c3cc(NS(=O)(=O)C4CC4)ccn3)s2)n1 [I-90, (S)—N-(2-(4-(cyclopropanesulfonamido)pyridin-2-yl)-1-methoxypropan-2-yl)-5-(6-ethoxypyrazin-2-yl)thiazole-2-carboxamide]
< 0.1	CCOc1cncc(-c2cnc(C(=O)N3CCOCC3c3cc(NS(=O)(=O)C4CC4)ccn3)s2)n1 (centres unmarked) [I-209, N-(2-{4-[5-(6-ethoxypyrazin-2-yl)-1,3-thiazole-2-carbonyl]morpholin-3-yl}pyridin-4-yl)cyclopropanesulfonamide]
0.1 to 1	CCOc1cncc(-c2ccc(C(=O)N3CCC[C@@H]3c3ccnc(NS(=O)(=O)C4CC4)n3)c(F)c2)n1 [I-285, N-[4-[(2R)-1-[4-(6-ethoxypyrazin-2-yl)-2-fluorobenzoyl]pyrrolidin-2-yl]pyrimidin-2-yl]cyclopropanesulfonamide]

IC50 [µM]	Structure (SMILES)
< 0.1	CCOc1cncc(-c2cnc(C(=O)N[C@H](CN3CCN(C4CC4)CC3)c3cc(NS(=O)(=O)C4CC4)ccn3)s2)n1 (single isomer, unassigned) [I-120]
0.1 to 1	Cc1nc(C(=O)NCc2cc(NS(=O)(=O)C3CC3)ccn2)cnc1N1CCC[C@@H](C(F)(F)F)C1 [I-55]
< 0.1	CCOc1cncc(-c2cnc(C(=O)N[C@@H](CN3CCOCC3(C)C)c3cc(NS(=O)(=O)C4CC4)ccn3)s2)n1 (single isomer, unassigned) [I-116]
0.1 to 1	O=C(NCc1cc(NS(=O)(=O)C2CC2)ccn1)c1ncc(-c2cnn3cccc3c2)s1 [I-200, N-((4-(cyclopropanesulfonamido)pyridin-2-yl)methyl)-5-(pyrrolo[1,2-b]pyridazin-3-yl)thiazole-2-carboxamide]
0.1 to 1	O=C(NCc1cc(NS(=O)(=O)C2CC2)ccn1)c1ncc(-c2cnn3cc(Cl)ccc23)s1 [I-202]
≥ 1	O=C(NC1(c2csc(NS(=O)(=O)C3CC3)n2)CC1)c1ccc2ccncc2c1 [I-7, N-(1-(2-(cyclopropanesulfonamido)thiazol-4-yl)cyclopropyl)isoquinoline-7-carboxamide]
< 0.1	CCOc1cncc(-c2cnc(C(=O)N[C@H](CN3CCC(N(C)C)CC3)c3cc(NS(=O)(=O)C4CC4)ccn3)s2)n1 (single isomer, unassigned) [I-103]
< 0.1	CCOc1cncc(-c2cnc(C(=O)N[C@@H](CN3CCN(C)CC3)c3cc(NS(=O)(=O)C4CC4)ccn3)s2)n1 (single isomer, unassigned) [I-191]
< 0.1	CCOc1cncc(-c2cnc(C(=O)NC(CN3CCCC3)c3cc(NS(=O)(=O)C4CC4)ccn3)s2)n1 (centres unmarked) [I-208]
< 0.1	CCOc1cncc(-c2ccc(C(=O)NC3(c4cccc(NS(=O)(=O)C(F)F)c4)CC3)nc2)n1 [I-265, N-[1-[3-(difluoromethanesulfonamido)phenyl]cyclopropyl]-5-(6-ethoxypyrazin-2-yl)pyridine-2-carboxamide]
< 0.1	CCOc1cncc(-c2cnc(C(=O)NC(C)(C)c3cccc(NS(=O)(=O)C(F)F)c3)s2)n1 [I-262, N-{2-[3-(difluoromethanesulfonamido)phenyl]propan-2-yl}-5-(6-ethoxypyrazin-2-yl)-1,3-thiazole-2-carboxamide]
≥ 1	O=C(NC1(c2csc(NS(=O)(=O)C3CC3)n2)CC1)c1ccc2ncccc2c1 [I-9, N-(1-(2-(cyclopropanesulfonamido)thiazol-4-yl)cyclopropyl)quinoline-6-carboxamide]
0.1 to 1	CCOc1cncc(-c2ccc(C(=O)N3CCC[C@@H]3c3cc(NS(=O)(=O)C4CC4)ccn3)c(F)c2)n1 [I-75, N-[2-[(2R)-1-[4-(6-ethoxypyrazin-2-yl)-2-fluorobenzoyl]pyrrolidin-2-yl]pyridin-4-yl]cyclopropanesulfonamide]
< 0.1	CCOc1cncc(-c2ncc(C(=O)NCc3cccc(NS(=O)(=O)C(F)F)c3)s2)n1 [I-62, N-[[3-(difluoromethanesulfonamido)phenyl]methyl]-2-(6-ethoxypyrazin-2-yl)-1,3-thiazole-5-carboxamide]
< 0.1	CCOc1cncc(-c2ccc(C(=O)NCc3cnnc(NS(=O)(=O)C4CC4)c3)nc2)n1 [I-246, N-[(6-cyclopropanesulfonamidopyridazin-4-yl)methyl]-5-(6-ethoxypyrazin-2-yl)pyridine-2-carboxamide]
≥ 1	CCOc1cncc(-c2ccc(C(=O)N3CCC[C@@H]3c3cc(NS(=O)(=O)C4CC4)ccn3)nc2)n1 [I-80, N-[2-[(2R)-1-[5-(6-ethoxypyrazin-2-yl)pyridine-2-carbonyl]pyrrolidin-2-yl]pyridin-4-yl]cyclopropanesulfonamide]

Source: patent US12331046B2, “CTPS1 inhibitors and uses thereof” (Nimbus Clotho, Inc., priority 2020, dated 2025)
